US20070244162A1 (priority 2005, published 2007)

How the values were obtained:
Type in all cases: cell-based
Phytophthora infestans = experiment: microbe, parasite or virus in culture; settings: read-out: Fungicidal activity IC50, P. infestans
Botrytis cinerea = test system: Botrytis cinerea
Stagonospora nodorum = experiment: microbe, parasite or virus in culture
Septoria tritici = experiment: microbe, parasite or virus in culture; settings: for IC50: Zymoseptoria tritici, read-out: Fungicidal activity IC50, S. tritici
Monilinia fructicola = experiment: microbe, parasite or virus in culture; settings: read-out: Fungicidal activity IC50, M. fructicola

Compound | IC50 (Phytophthora infestans) [nM] | Fungicidal activity IC50, B. cinerea (Botrytis cinerea) | IC50 (Stagonospora nodorum; Parastagonospora nodorum, read-out: Fungicidal activity IC50, S. nodorum) [nM] | Fungicidal activity IC50, S. tritici (Septoria tritici) | IC50 (Monilinia fructicola) [nM] | Fungicidal activity IC50, S. nodorum (Stagonospora nodorum) | IC50 (Septoria tritici) [nM]
OC(c1cccnc1)c1c(-c2ccc(Cl)cc2)csc1-c1ccc(Cl)s1 (stereo not shown) [Compound 4, 4-(4-Chlorophenyl)-2-(5-chloro-2-thienyl)-3-[(3-pyridyl)hydroxymethyl]-thiophene] | > 100000 | B (c) | 110 to 1000 | A (d) | < 100 |  | 
OC(c1cccnc1)c1c(-c2ccc(F)cc2F)csc1-c1ccc(Cl)cc1 (stereo not shown) [Compound 6, 2-(4-Chlorophenyl)-4-(2,4-difluorophenyl)-3-[(3-pyridyl)hydroxymethyl]-thiophene] | > 100000 | B (d) |  | A (b) | < 100 | B (c) | 
OC(c1cccnc1)c1c(-c2ccc(Cl)cc2)csc1-c1ccc(Cl)cc1 (stereo not shown) [Compound 8, 2,4-Bis-(4-chlorophenyl)-3-[(3-pyridyl)hydroxymethyl]-thiophene] | > 100000 |  |  | A (d) |  | B (d) | 
OC(c1cccnc1)c1c(-c2ccc(Cl)cc2)csc1-c1cccs1 (stereo not shown) [Compound 9, 4-(4-Chlorophenyl)-3-[(3-pyridyl)hydroxymethyl]-2-(2-thienyl)thiophene] | > 100000 | B (d) |  | A (c) | < 100 | A (d) | 
OC(c1cccnc1)c1c(-c2cccs2)csc1-c1ccc(Cl)cc1 (stereo not shown) [Compound 12, 2-(4-Chlorophenyl)-3-[(3-pyridyl)hydroxymethyl]-4-(2-thienyl)thiophene] | > 100000 | A (d) |  |  | < 100 | A (d) | < 100
Cc1ccc(-c2csc(-c3ccc(F)cc3F)c2C(O)c2cccnc2)s1 (stereo not shown) [Compound 14, 2-(2,4-Difluorophenyl)-4-(5-methyl-2-thienyl)-3-[(3-pyridyl)hydroxymethyl]-thiophene] | > 100000 | B (d) |  |  | < 100 | A (b) | < 100
